The test relates to neonatal cardiomyocytes. As to the kind of experiment: Myocyte calcium-contractility assay. It is filed as cell-based, rat. Particulars: anaerobic chamber 16 hours in DMEM 1 mM glucose, reoxygenation two hours. How it is done: A. Isolation and Culture of Primary Neonate Myocytes.
The following materials are employed: • 10× Heart Dissection Solution (HDS) contains the following components (g/l) in tissue grade water: NaCl, 68; HEPES, 47.6; NaH2PO4, 2; Glucose, 10; KCl, 4; MgSO4, 1, pH adjusted to 7.4. Prior to filter sterilization of diluted (1×HDS) solution, 10 mg phenol red is added to each 500 milliliters of medium. • Transferrin and Bovine Insulin (available from Life Technologies) are resuspended at a concentration of 4 mg/ml in tissue culture grade water. • DMEM-F12—DMEM/F12, powder, 1:1 containing glutamine and pyridoxine hydrochloride (available from Life Technologies). To one liter equivalent of the powder is added 2.43 g of sodium bicarbonate and 10 ml of 100× Penicillin/Streptomycin in 950 ml of tissue culture grade water with stirring. The pH is adjusted to 7.2 with 1M HCl and volume adjusted to 1 liter. The solution is filter sterilized, followed by the addition of 2.5 ml of 4 mg/ml Transferrin, 250 μl 4 mg/ml Insulin and 30.7 mg of bromodeoxyuridine. • DMEM-F12-5% FBS is also prepared for pre-coating the tissue culture plates and initial suspension of the cardiomyocyte pellet. • Collagenase solution-57.1 mg of collagenase is resuspended in 140 ml 1×HDS.
Tissue culture ware is pre-coated with DMEM-F12-5% FBS by incubating […] per well of a 96-well plate and 0.5 ml per 24-well plate at 37° C.
Two-day old rat pups are removed from their mothers and placed in a sterile container. Pups are dipped quickly into 70% alcohol, then decapitated and the body placed in an empty sterile tissue culture dish. An incision is made starting at the neck and progressing towards the belly, cutting through the sternum. The heart is removed and placed in a tissue culture dishes containing 1×HDS. The atria are trimmed, and the remaining ventricles are placed into a separate tissue culture dish containing 1×HDS, where they are sectioned into 3-4 pieces each. Ventricles are then transferred to a sterile 250 ml glass flask and the 1×HDS is removed. Twenty milliliters of pre-warmed collagenase solution is added to the ventricles, followed by incubation at 37° C. with shaking. After 20 minutes, the collagenase solution is removed and replaced with 20 ml fresh pre-warmed collagenase. Incubation is continued for an additional 20 minutes. At the end of the incubation, any tissue chunks are allowed to settle prior to removing the collagenase (containing the isolated cardiomyocytes) from the disrupted tissue pieces. The isolated myocytes are added to a 50 ml Falcon tube containing 2 ml Fetal Bovine Serum (FBS). The remaining tissue pieces are subjected to a second digestion by adding 20 ml fresh pre-warmed collagenase and incubating as above for 20 minutes. This second digest is then centrifuged at 1000 rpm for 5 minutes (tabletop centrifuge). The resulting supernatant is discarded, and the cell pellet is suspended with 4 ml FBS. The resulting cell suspension is placed in the incubator at 37° C. This step is repeated several additional times to harvest additional material.
Percoll gradients are prepared by adding 2.5 ml of 10×HDS to 22.5 ml of Percoll (Life Technologies) with mixing (Percoll Stock). Top Gradient solution (11 ml Percoll Stock and 14 ml 1×HDS) and Bottom Gradient solution (13 ml Percoll Stock and 7 ml 1×HDS) are prepared. Four milliliters of the Top Gradient solution is transferred into 6×15 ml sterile Falcon tubes. Three milliliters of the Bottom Gradient solution is placed in each tube by inserting a serological pipette to the bottom of the tube and slowly adding the liquid.
All the digests (6) are pooled in one 50 ml Falcon tube and centrifuged on a tabletop centrifuge at 1000 rpm for 10 minutes. The supernatant is discarded, and the cell pellet is resuspended in 12 ml of 1×HDS. Two milliliters of the cell suspension is added to the top of each gradient. […]

The values below come from US7629375B2, “Cytoprotective compounds, pharmaceutical and cosmetic formulations, and methods” (Johnson & Johnson Consumer Companies, Inc., priority 2001, dated 2009).

On to `COC(=O)c1ccc(C=Cc2cc(I)c(O)c(OC)c2)cc1` [4-[2-(4-hydroxy-3-iodo-5-methoxy-phenyl)-vinyl]-benzoic acid methyl ester], for which the “calcium transients (Fluo-4) in amounts indicative of ability guard against ischemic damage and maintain contractile function” value (shortened to “calcium transients”) is listed as “presence of calcium transients”. To `COc1cc(C=Cc2ccc(C#N)cc2)ccc1O` [4-[2-(4-hydroxy-3-methoxy-phenyl)-vinyl]-benzonitrile] belongs “presence of calcium transients”.

For the molecule `COC(=O)c1ccc(C=Cc2ccc(C)s2)cc1` [4-[2-(5-methyl-thiophen-2-yl)-vinyl]-benzoic acid methyl ester], the “calcium transients” value was “presence of calcium transients”. Turning to `COCOc1cc(C=Cc2ccc(C(=O)OC)cc2)cc(CC=C(C)C)c1OCOC` [4-{2-[3,4-bis-methoxymethoxy-5-(3-methyl-but-2-enyl)-phenyl]-vinyl}-benzoic acid methyl ester], the “calcium transients” value is reported as “presence of calcium transients”. Next, `COCOc1cc(C=Cc2ccc(C#N)cc2)cc(OCOC)c1CC=C(C)C` [4-{2-[3,5-bis-methoxymethoxy-4-(3-methyl-but-2-enyl)-phenyl]-vinyl}-benzonitrile]: “presence of calcium transients”; `COC(=O)c1ccc(C=Cc2cc(CC=C(C)CCC=C(C)C)c(O)c(OC)c2)cc1` [4-{2-[3-(3,7-dimethyl-octa-2,6-dienyl)-4-hydroxy-5-methoxy-phenyl]-vinyl}-benzoic acid methyl ester]: “presence of calcium transients”; `COc1cc(C=Cc2ccc(C#N)cc2)cc(CC=C(C)CCC=C(C)C)c1O` [4-{2-[3-(3,7-dimethyl-octa-2,6-dienyl)-4-hydroxy-5-methoxy-phenyl]-vinyl}-benzonitrile]: “presence of calcium transients”. Turning to `COCOc1c(CC=C(C)CCC=C(C)C)cc(C=Cc2ccc(C#N)cc2)cc1OC` [4-{2-[3-(3,7-dimethyl-octa-2,6-dienyl)-5-methoxy-4-methoxymethoxy-phenyl]-vinyl}-benzonitrile], the “calcium transients” value was “presence of calcium transients”.

For `COCOc1c(CC=C(C)C)cc(C=Cc2ccc(C(=O)OC)cc2)cc1OC` [4-{2-[3-methoxy-4-methoxymethoxy-5-(3-methyl-but-2-enyl)-phenyl]-vinyl}-benzoic acid methyl ester], the “calcium transients” value is recorded as “presence of calcium transients”. Next, `COCOc1cc(C=Cc2ccc(C(=O)OC)cc2)cc(OCOC)c1CC=C(C)CCC=C(C)C` [4-{2-[4-(3,7-dimethyl-octa-2,6-dienyl)-3,5-bis-methoxymethoxy-phenyl]-vinyl}-benzoic acid methyl ester]: “presence of calcium transients”. Next, `COCOc1cc(C=Cc2ccc(C#N)cc2)cc(OCOC)c1CC=C(C)CCC=C(C)C` [4-{2-[4-(3,7-dimethyl-octa-2,6-dienyl)-3,5-bis-methoxymethoxy-phenyl]-vinyl}-benzonitrile]: “presence of calcium transients”. For the molecule `Oc1cc(-c2ccc(C=Cc3ccc(O)c(O)c3)cc2)n[nH]1` [4-{2-[4-(5-hydroxy-1H-pyrazol-3-yl)-phenyl]-vinyl}-benzene-1,2-diol], the “calcium transients” value is “presence of calcium transients”. To `COCOc1ccc(C=C2SC(=O)NC2=O)cc1OCOC` [5-(3,4-bis-methoxymethoxy-benzylidene)-thiazolidine-2,4-dione] belongs “presence of calcium transients”.

In the case of `O=C1NC(=O)C(=Cc2ccc(O)c(O)c2)S1` [5-(3,4-dihydroxy-benzylidene)-thiazolidine-2,4-dione], the “calcium transients” value is “presence of calcium transients”. To `COCOc1cc(C=Cc2cc(OC)c(OCOC)c(OC)c2)cc(OCOC)c1CC=C(C)C` [5-[2-(3,5-dimethoxy-4-methoxymethoxy-phenyl)-vinyl]-2-(3-methyl-but-2-enyl)-1,3-(bis-methoxymethoxy)-benzene] belongs “presence of calcium transients”; to `COCOC(=O)c1cc(C=Cc2ccc(C(=O)OC)cc2)ccc1OCOC` [5-[2-(4-methoxycarbonyl-phenyl)-vinyl]-2-methoxymethoxy-benzoic acid methoxymethyl ester], “presence of calcium transients”. For `O=[N+]([O-])c1ccc(C=Cc2cc(O)cc(O)c2)cc1` [5-[2-(4-nitro-phenyl)-vinyl]-benzene-1,3-diol], the “calcium transients” value was “presence of calcium transients”. `Cc1c(C)c2c(c(COc3ccc(C=C4SC(=O)NC4=O)cc3)c1O)CCC(C)(CCCC(C)CCCC(C)CCCC(C)C)O2` (centres unmarked) [5-{4-[6-hydroxy-2,7,8-trimethyl-2-(4,8,12-trimethyl-tridecyl)-chroman-5-ylmethoxy]-benzylidene}-thiazolidine-2,4-dione]: the “calcium transients” value was “presence of calcium transients”. Turning to `COCOc1ccc(C=Cc2ccc(N(C)C)cc2)cc1OCOC` [{4-[2-(3,4-bis-methoxymethoxy-phenyl)-vinyl]-phenyl}-dimethyl-amine], the “calcium transients” value was “presence of calcium transients”. With `CNc1ccc(C=Cc2ccc(OCOC)c(OCOC)c2)cc1` [{4-[2-(3,4-bis-methoxymethoxy-phenyl)-vinyl]-phenyl}-methyl-amine], the “calcium transients” value is on record as “presence of calcium transients”.
